The values that follow come from patent publication US20140171415A1, “FUNNY CURRENT (IF) INHIBITORS FOR USE IN A METHOD OF TREATING AND PREVENTING HEART DISEASE IN CANINE” (Boehringer Ingelheim Vetmedica GmbH, priority 2012, published 2014).

The subject of one data set is Ih channel. To be noted: literature: Neuroscience 1994 (zatebradine), British Journal of Pharmacology 1998 (cilobradine); cited from earlier work.
Another data set relates to anesthetized dogs. Put plainly: Cardiovascular and electrocardiographic effects in anesthetized dogs. The class given is in vivo, dog. On the procedure:
Cardiovascular and Electrocardiographic Effects of Cilobradine (DKAH 3 CL) in Dogs:
The dose of 0.05 mg/kg reduced spontaneous HR by 23% whereas 0.1 mg/kg i.v. reduced HR by 42%. Systolic and diastolic pressure was not affected. The effective refractory times of the sinus and atrioventricular (AV) node increased with 0.05 mg/kg by 31% and 30% respectively.

Another data set deals with conscious dogs. Put plainly: Heart rate and arterial blood pressure by telemetry in conscious dogs. The class given is in vivo, dog. The procedure:
Heart rate (HR) and arterial blood pressure (BP) were measured in conscious dogs using telemetry methodology. They received daily oral doses of 0.3 mg/kg over 5 days. HR measured prior drug administration was reduced from 64.0±6.81 beats per minute (bpm) to 50.5±5.54 bpm on day 5. maximal effect on HR were seen between 1.5 and 3.5 hours post-dosing and HR reached values between 45 and 53 bpm. No effect on arterial BP was seen.

Data set [1] relates to conscious, chronically instrumented dogs. As to the kind of experiment: Hemodynamic action in conscious, chronically instrumented dogs. To be noted: 2.5 mg/kg orally. The class given is in vivo, dog. An excerpt: Hyodynamic Action in Conscious, Chronically Instrumented Dogs:
HR dropped by up to 40% while blood pressure was not affected. Left ventricular end-diastolic pressure rose. This effect on preload may be explained by prolongation of the filling period due to prolongation of diastolic duration. Renal blood flow was maintained and coronary blood flow decreased by up to 40% most likely as a consequence of a drop in myocardial oxygen demand.

The nature of data set [2]: Lipophilicity profile of the active substance. The class given is physicochemical. As to conditions: neutral pH versus acidic pH. An excerpt: Usually, EC/HPMC films show a sustained release behavior that is independent of pH. […] This, together with the coating applied, may have led to a slower release.
The next data set concerns healthy Beagle dogs. Put plainly: Radiotelemetric pharmacodynamic study, repeated once and twice daily oral administration. It is filed as in vivo, dog. To be noted: for minimum of the first derivative of the left ventricular pressure against time (LVdP/dtmin) / maximum of the first derivative of the left ventricular pressure against time (LVdP/dtmax) / decrease of heart rate: healthy Beagle dogs; for minimum of the first derivative of the left ventricular pressure against time (LVdP/dtmin): from −2700 mmHg/s; for maximum of the first derivative of the left ventricular pressure against time (LVdP/dtmax): increased from 2700 mmHg/s; for decrease of heart rate: 0.3 mg/kg bodyweight oral, 2 mg/ml oral suspension. The procedure: A Radiotelemetric Study to Evaluate the Pharmacodynamic Effects of Cilobradine HCl 2 Mg/Ml Oral Suspension after Repeated Once and Twice Daily Oral Administration to Healthy Beagle Dogs
Cilobradine HCl 2 mg/ml oral suspension was given once or twice daily at doses of 0.3 mg/kg bodyweight to conscious, healthy Beagle dogs chronically implanted with a telemetry system. Heart rate, systolic blood pressure, diastolic blood pressure, aortic pressure, left ventricular pressure, electrocardiogram (ECG), and body temperature were recorded. Before each treatment sequence all dogs underwent a 24 hour pre-dosing measurement which served as a baseline (control) measurement. After dosing the dogs were left undisturbed for the duration of the study, which lasted 24 hours, with the exception of the second dosing 10-12 hours after the first treatment.

Where [3] appears, read: 0.3 mg/kg bodyweight once daily and twice daily in comparison to control.
Where [4] appears, read: 0.3 mg/kg bodyweight once daily.
Where [5] appears, read: 0.3 mg/kg bodyweight twice daily.

For the compound `COc1ccc(CCN2CCC[C@H](CN3CCc4cc(OC)c(OC)cc4CC3=O)C2)cc1OC` [Cilobradine, (+)-3-[(N-(2-(3,4-dimethoxy-phenyl)ethyl)-piperidin-3-(S)-yl)-methyl]-(7,8-dimethoxy-1,3,4,5-tetrahydro-2H-3-benzazepin-2-on)], the “effect on the Ih channel” value in the data set on Ih channel is “can also be blocked”. In the data set with anesthetized dogs (0.05 mg/kg i.v.), the “increase of effective refractory time of the atrioventricular (AV) node” value was found to be 30%, the “increase of effective refractory time of the sinus node” value was 31% and the “reduction of spontaneous HR” value was 23%. The “reduction of spontaneous HR” value in the data set on anesthetized dogs (0.1 mg/kg i.v.) was 42%. Besides, in the data set on anesthetized dogs (0.05 or 0.1 mg/kg i.v.), the “systolic and diastolic pressure” value is “not affected”. In addition, the “effect on arterial BP” value in the data set with conscious dogs (daily oral 0.3 mg/kg over 5 days) is reported as “No effect”. Besides, in the data set with conscious dogs (daily oral doses of 0.3 mg/kg over 5 days, reduced from 64.0±6.81 bpm), the “HR measured prior drug administration on day 5” value turned out to be 50.5±5.54 bpm. In data set [1], the blood pressure entry is “not affected”, the “decrease of coronary blood flow” value is reported as “up to 40%”, the “drop of HR” value was “up to 40%” and the “left ventricular end-diastolic pressure” value is listed as “rose”. In addition, the renal blood flow result in data set [1] is listed as “maintained”.
In the case of `COc1ccc(CCN(C)CCCN2CCc3cc(OC)c(OC)cc3CC2=O)cc1OC` [zatebradine, reference compound], the “effect on the Ih channel” value in the data set with Ih channel is “can also be blocked”.
As to `COc1ccc(CCN2CCC[C@H](CN3CCc4cc(OC)c(OC)cc4CC3=O)C2)cc1OC.Cl` [cilobradine HCl, (+)-3-[(N-(2-(3,4-dimethoxy-phenyl)ethyl)-piperidin-3-(S)-yl)-methyl]-(7,8-dimethoxy-1,3,4,5-tetrahydro-2H-3-benzazepin-2-on hydrochloride)], the lipophilicity profile entry in data set [2] is “slightly more lipophilic at neutral pH values”. Also, in the data set with healthy Beagle dogs (setting [3]), the “inotropic effect (FIG. 1)” value is “positive inotropic effect”. Moreover, the “lusitropic effect (FIG. 2)” value with healthy Beagle dogs (setting [3]) was “positive lusitropic effect”. The “minimum of the first derivative of the left ventricular pressure against time (LVdP/dtmin)” value is −3000 mmHg/s with healthy Beagle dogs (setting [4]) and −3550 mmHg/s with healthy Beagle dogs (setting [5]). Also, the figures for the “maximum of the first derivative of the left ventricular pressure against time (LVdP/dtmax)” value in the data set with healthy Beagle dogs (setting [4]) and in the data set with healthy Beagle dogs (setting [5]) were 3000 mmHg/s and 3550 mmHg/s, respectively. Further, the “decrease of heart rate” value with healthy Beagle dogs (repeated once daily) was “approximately 25%”; in the data set with healthy Beagle dogs (repeated twice daily), about 30%.
